# Article PMC11292009, “Mapping protein binding sites by photoreactive fragment pharmacophores” (Communications Chemistry, 2024)
# Entries after “also recorded” stand apart in the source; their conditions may differ.
# Test system: T1, Kras G12D protein / SOS1 exchange domain
# T1 construct: Cytoskeleton, Inc. (SOS1 exchange domain only) GE02
# Experiment: Kras-SOS exchange assay (MANT-GDP)
# Assay type: biochemical
# Details: for normalized signal, Kras-SOS exchange (Figure 4c PhP072 irradiation): Php072 500 uM
# Experimental: MANT-GDP loading assay: Kras^G12D protein was first buffer exchanged into low magnesium buffer (20 mM HEPES-NaOH (pH 7.5), 50 mM NaCl, 0.5 mM MgCl2) using a NAP5 column (catalog no.: 17-0583-1, Cytiva). The proteins were then incubated with 20-fold molar excess of N-methylanthraniloyl (MANT)-GDP (catalog no.: 69244, Sigma-Aldrich) in loading buffer (50 mM NaCl, 20 mM HEPES-NaOH [pH 7.5], 0.5 mM MgCl2, 10 mM EDTA, and 1 mM Dithiothreitol (DTT)) in a total volume of 200 μL at 20 °C for 90 min. The reaction was stopped by adding MgCl2 to a final concentration of 10 mM, then incubated at 20 °C for 30 min. The unbound MANT-GDP was removed using the NAP-5 column equilibrated with nucleotide exchange buffer (40 mM HEPES-NaOH (pH 7.5), 50 mM NaCl, 10 mM MgCl2, 2 mM DTT).
# MANT-GDP exchange assay: First the MANT-GDP bound Kras G12D protein (in a final 1 μM molar concentration) was preincubated with the inhibitor molecules for 60 min. After the preincubation the samples were exposed to UV light for 10 min with a wavelength of 366 nm. The UV-treated MANT-GDP Kras-inhibitor mix was loaded into a black 384 well microplate. The nucleotide exchange reaction was initiated by adding 100 fold molar excess of GppNHp (catalog no.: G0635, Sigma-Aldrich), a non-hydrolyzable GTP analog and the SOS1 exchange domain (catalog no.: GE02, Cytoskeleton, Inc.) protein in 0.5 μM final concentration. The change in fluorescence intensity was measured every 30 s in room temperature for 60 min on an EnSpire plate reader (PerkinElmer, Inc.). The measured fluorescence values were fitted to a single exponential function by using GraphPad Prism 8 software.
smiles,measurement,setting,value
"Cc1ncc(CO)c(CNC(=O)CCC2(C)N=N2)c1O [PhP072, Cc1ncc(CO)c(c1O)CNC(=O)CCC2(C)N=N2]","normalized signal, Kras-SOS exchange (Figure 4c PhP072 irradiation)",time 30 sec,0.9874
same,"normalized signal, Kras-SOS exchange (Figure 4c PhP072 irradiation)",time 60 sec,0.984
same,"normalized signal, Kras-SOS exchange (Figure 4c PhP072 irradiation)",time 90 sec,0.9869
same,"normalized signal, Kras-SOS exchange (Figure 4c PhP072 irradiation)",time 120 sec,0.9755
same,"normalized signal, Kras-SOS exchange (Figure 4c PhP072 irradiation)",time 210 sec,0.9893
same,"normalized signal, Kras-SOS exchange (Figure 4c PhP072 irradiation)",time 240 sec,1.005
same,"normalized signal, Kras-SOS exchange (Figure 4c PhP072 irradiation)",time 270 sec,0.9931
same,"normalized signal, Kras-SOS exchange (Figure 4c PhP072 irradiation)",time 300 sec,0.9815
same,"normalized signal, Kras-SOS exchange (Figure 4c PhP072 irradiation)",time 330 sec,0.9652
same,"normalized signal, Kras-SOS exchange (Figure 4c PhP072 irradiation)",time 360 sec,0.9672
same,"normalized signal, Kras-SOS exchange (Figure 4c PhP072 irradiation)",time 390 sec,0.9659
same,"normalized signal, Kras-SOS exchange (Figure 4c PhP072 irradiation)",time 420 sec,0.9589
same,"normalized signal, Kras-SOS exchange (Figure 4c PhP072 irradiation)",time 450 sec,0.9736
same,"normalized signal, Kras-SOS exchange (Figure 4c PhP072 irradiation)",time 480 sec,0.978
same,"normalized signal, Kras-SOS exchange (Figure 4c PhP072 irradiation)",time 510 sec,0.9558
same,"normalized signal, Kras-SOS exchange (Figure 4c PhP072 irradiation)",time 540 sec,0.9578
same,"normalized signal, Kras-SOS exchange (Figure 4c PhP072 irradiation)",time 570 sec,0.9776
same,"normalized signal, Kras-SOS exchange (Figure 4c PhP072 irradiation)",time 600 sec,0.972
same,"normalized signal, Kras-SOS exchange (Figure 4c PhP072 irradiation)",time 630 sec,0.974
same,"normalized signal, Kras-SOS exchange (Figure 4c PhP072 irradiation)",time 660 sec,0.9647
same,"normalized signal, Kras-SOS exchange (Figure 4c PhP072 irradiation)",time 690 sec,0.9564
same,"normalized signal, Kras-SOS exchange (Figure 4c PhP072 irradiation)",time 720 sec,0.9623
same,"normalized signal, Kras-SOS exchange (Figure 4c PhP072 irradiation)",time 750 sec,0.9619
same,"normalized signal, Kras-SOS exchange (Figure 4c PhP072 irradiation)",time 780 sec,0.9405
same,"normalized signal, Kras-SOS exchange (Figure 4c PhP072 irradiation)",time 810 sec,0.9601
same,"normalized signal, Kras-SOS exchange (Figure 4c PhP072 irradiation)",time 840 sec,0.9458
same,"normalized signal, Kras-SOS exchange (Figure 4c PhP072 irradiation)",time 870 sec,0.9534
same,"normalized signal, Kras-SOS exchange (Figure 4c PhP072 irradiation)",time 900 sec,0.9403
same,"normalized signal, Kras-SOS exchange (Figure 4c PhP072 irradiation)",time 930 sec,0.9459
same,"normalized signal, Kras-SOS exchange (Figure 4c PhP072 irradiation)",time 960 sec,0.9381
same,"normalized signal, Kras-SOS exchange (Figure 4c PhP072 irradiation)",time 990 sec,0.9447
same,"normalized signal, Kras-SOS exchange (Figure 4c PhP072 irradiation)",time 1020 sec,0.9591
same,"normalized signal, Kras-SOS exchange (Figure 4c PhP072 irradiation)",time 1050 sec,0.9368
same,"normalized signal, Kras-SOS exchange (Figure 4c PhP072 irradiation)",time 1080 sec,0.9576
same,"normalized signal, Kras-SOS exchange (Figure 4c PhP072 irradiation)",time 1110 sec,0.9476
same,"normalized signal, Kras-SOS exchange (Figure 4c PhP072 irradiation)",time 1140 sec,0.9304
same,"normalized signal, Kras-SOS exchange (Figure 4c PhP072 irradiation)",time 1170 sec,0.9558
same,"normalized signal, Kras-SOS exchange (Figure 4c PhP072 irradiation)",time 1200 sec,0.9429
same,"normalized signal, Kras-SOS exchange (Figure 4c PhP072 irradiation)",time 1230 sec,0.9405
same,"normalized signal, Kras-SOS exchange (Figure 4c PhP072 irradiation)",time 1260 sec,0.9391
same,"normalized signal, Kras-SOS exchange (Figure 4c PhP072 irradiation)",time 1290 sec,0.9393
same,"normalized signal, Kras-SOS exchange (Figure 4c PhP072 irradiation)",time 1320 sec,0.944
same,"normalized signal, Kras-SOS exchange (Figure 4c PhP072 irradiation)",time 1350 sec,0.9654
same,"normalized signal, Kras-SOS exchange (Figure 4c PhP072 irradiation)",time 1380 sec,0.9701
same,"normalized signal, Kras-SOS exchange (Figure 4c PhP072 irradiation)",time 1410 sec,0.9426
same,"normalized signal, Kras-SOS exchange (Figure 4c PhP072 irradiation)",time 1440 sec,0.9472
same,"normalized signal, Kras-SOS exchange (Figure 4c PhP072 irradiation)",time 1470 sec,0.9361
same,"normalized signal, Kras-SOS exchange (Figure 4c PhP072 irradiation)",time 1500 sec,0.939
same,"normalized signal, Kras-SOS exchange (Figure 4c PhP072 irradiation)",time 1530 sec,0.9519
same,"normalized signal, Kras-SOS exchange (Figure 4c PhP072 irradiation)",time 1560 sec,0.9436
same,"normalized signal, Kras-SOS exchange (Figure 4c PhP072 irradiation)",time 1590 sec,0.9444
same,"normalized signal, Kras-SOS exchange (Figure 4c PhP072 irradiation)",time 1620 sec,0.9461
same,"normalized signal, Kras-SOS exchange (Figure 4c PhP072 irradiation)",time 1650 sec,0.9444
same,"normalized signal, Kras-SOS exchange (Figure 4c PhP072 irradiation)",time 1680 sec,0.9402
same,"normalized signal, Kras-SOS exchange (Figure 4c PhP072 irradiation)",time 1710 sec,0.948
same,"normalized signal, Kras-SOS exchange (Figure 4c PhP072 irradiation)",time 1740 sec,0.9364
same,"normalized signal, Kras-SOS exchange (Figure 4c PhP072 irradiation)",time 1770 sec,0.939
same,"normalized signal, Kras-SOS exchange (Figure 4c PhP072 irradiation)",time 1800 sec,0.9328
same,"normalized signal, Kras-SOS exchange (Figure 4c PhP072 irradiation)",time 1830 sec,0.9307
same,"normalized signal, Kras-SOS exchange (Figure 4c PhP072 irradiation)",time 1860 sec,0.9265
same,"normalized signal, Kras-SOS exchange (Figure 4c PhP072 irradiation)",time 1890 sec,0.9579
same,"normalized signal, Kras-SOS exchange (Figure 4c PhP072 irradiation)",time 1920 sec,0.9312
same,"normalized signal, Kras-SOS exchange (Figure 4c PhP072 irradiation)",time 1950 sec,0.9362
same,"normalized signal, Kras-SOS exchange (Figure 4c PhP072 irradiation)",time 1980 sec,0.9324
same,"normalized signal, Kras-SOS exchange (Figure 4c PhP072 irradiation)",time 2010 sec,0.9475
same,"normalized signal, Kras-SOS exchange (Figure 4c PhP072 irradiation)",time 2040 sec,0.9452
same,"normalized signal, Kras-SOS exchange (Figure 4c PhP072 irradiation)",time 2070 sec,0.9435
same,"normalized signal, Kras-SOS exchange (Figure 4c PhP072 irradiation)",time 2100 sec,0.9537
same,"normalized signal, Kras-SOS exchange (Figure 4c PhP072 irradiation)",time 2130 sec,0.9458
same,"normalized signal, Kras-SOS exchange (Figure 4c PhP072 irradiation)",time 2160 sec,0.9297
same,"normalized signal, Kras-SOS exchange (Figure 4c PhP072 irradiation)",time 2190 sec,0.9168
same,"normalized signal, Kras-SOS exchange (Figure 4c PhP072 irradiation)",time 2220 sec,0.941
same,"normalized signal, Kras-SOS exchange (Figure 4c PhP072 irradiation)",time 2250 sec,0.934
same,"normalized signal, Kras-SOS exchange (Figure 4c PhP072 irradiation)",time 2280 sec,0.9076
same,"normalized signal, Kras-SOS exchange (Figure 4c PhP072 irradiation)",time 2310 sec,0.9404
same,"normalized signal, Kras-SOS exchange (Figure 4c PhP072 irradiation)",time 2340 sec,0.9263
same,"normalized signal, Kras-SOS exchange (Figure 4c PhP072 irradiation)",time 2370 sec,0.9501
same,"normalized signal, Kras-SOS exchange (Figure 4c PhP072 irradiation)",time 2400 sec,0.9106
same,"normalized signal, Kras-SOS exchange (Figure 4c PhP072 irradiation)",time 2430 sec,0.9173
same,"normalized signal, Kras-SOS exchange (Figure 4c PhP072 irradiation)",time 2460 sec,0.928
same,"normalized signal, Kras-SOS exchange (Figure 4c PhP072 irradiation)",time 2490 sec,0.9153
same,"normalized signal, Kras-SOS exchange (Figure 4c PhP072 irradiation)",time 2520 sec,0.9464
same,"normalized signal, Kras-SOS exchange (Figure 4c PhP072 irradiation)",time 2550 sec,0.9246
same,"normalized signal, Kras-SOS exchange (Figure 4c PhP072 irradiation)",time 2580 sec,0.9142
same,"normalized signal, Kras-SOS exchange (Figure 4c PhP072 irradiation)",time 2910 sec,0.92
same,"normalized signal, Kras-SOS exchange (Figure 4c PhP072 irradiation)",time 2940 sec,0.9177
same,"normalized signal, Kras-SOS exchange (Figure 4c PhP072 irradiation)",time 2970 sec,0.9062
same,"normalized signal, Kras-SOS exchange (Figure 4c PhP072 irradiation)",time 3000 sec,0.928
same,"normalized signal, Kras-SOS exchange (Figure 4c PhP072 irradiation)",time 3030 sec,0.9131
same,"normalized signal, Kras-SOS exchange (Figure 4c PhP072 irradiation)",time 3060 sec,0.9065
same,"normalized signal, Kras-SOS exchange (Figure 4c PhP072 irradiation)",time 3090 sec,0.9086
same,"normalized signal, Kras-SOS exchange (Figure 4c PhP072 irradiation)",time 3120 sec,0.9109
same,"normalized signal, Kras-SOS exchange (Figure 4c PhP072 irradiation)",time 3150 sec,0.9207
same,"normalized signal, Kras-SOS exchange (Figure 4c PhP072 irradiation)",time 3180 sec,0.8921
same,"normalized signal, Kras-SOS exchange (Figure 4c PhP072 irradiation)",time 3210 sec,0.9129
same,"normalized signal, Kras-SOS exchange (Figure 4c PhP072 irradiation)",time 3240 sec,0.8834
same,"normalized signal, Kras-SOS exchange (Figure 4c PhP072 irradiation)",time 3270 sec,0.9149
same,"normalized signal, Kras-SOS exchange (Figure 4c PhP072 irradiation)",time 3300 sec,0.9074
same,"normalized signal, Kras-SOS exchange (Figure 4c PhP072 irradiation)",time 3330 sec,0.9207
same,Effect on SOS1-mediated nucleotide exchange of KRas,prior to irradiation,little effect
same,Effect on SOS1-mediated nucleotide exchange of KRas,"upon irradiation (366 nm, 10 min)",fully restores KRas function to the control level; also recorded: restore KRas function
